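Interpolation was linear, between the two tested concentrations surrounding the appropriate level; five concentrations were tested over 48 hours in 96-well plates. TGI denotes the concentration required for complete inhibition of growth.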
What was measured:
Test in all cases: NCI tumour cell line growth inhibition, 48 h
OVCAR-3 ovarian = test system: OVCAR-3 ovarian
HOP-92 NSCLC = test system: HOP-92 NSCLC
U251 CNS = test system: U251 CNS
SF-295 CNS = test system: SF-295 CNS
SF-268 CNS = test system: SF-268 CNS
A549 NSCLC = test system: A549 NSCLC
ACHN renal = test system: ACHN renal
HS 578T breast = test system: HS 578T breast
DU-145 prostate = test system: DU-145 prostate
HT29 colon = test system: HT29 colon
NCI-H522 lung = test system: NCI-H522 lung
HCT-116 colon = test system: HCT-116 colon
HCT-15 colon = test system: HCT-15 colon
HCC-2998 colon = test system: HCC-2998 colon
M14 melanoma = test system: M14 melanoma
IGROV1 ovarian = test system: IGROV1 ovarian
UO-31 renal = test system: UO-31 renal
RXF 393 renal = test system: RXF 393 renal
UACC-257 melanoma = test system: UACC-257 melanoma
SK-MEL-28 melanoma = test system: SK-MEL-28 melanoma
MDA-MB-231 breast = test system: MDA-MB-231 breast
NCI/ADR-RES ovarian = test system: NCI/ADR-RES ovarian
SW-620 colon = test system: SW-620 colon
CAKI-1 renal = test system: CAKI-1 renal
SR leukemia = test system: SR leukemia
BT-549 breast = test system: BT-549 breast
MDA-MB-435 = test system: MDA-MB-435
PC-3 prostate = test system: PC-3 prostate
LOX IMVI melanoma = test system: LOX IMVI melanoma
MALME-3M melanoma = test system: MALME-3M melanoma
SK-MEL-2 melanoma = test system: SK-MEL-2 melanoma
SN12C renal = test system: SN12C renal
KM12 colon = test system: KM12 colon
HOP-62 NSCLC = test system: HOP-62 NSCLC
SNB-19 CNS = test system: SNB-19 CNS
SK-MEL-5 melanoma = test system: SK-MEL-5 melanoma
OVCAR-4 ovarian = test system: OVCAR-4 ovarian
MDA-N = test system: MDA-N
NCI-H23 lung = test system: NCI-H23 lung
RPMI-8226 leukemia = test system: RPMI-8226 leukemia
EKVX NSCLC = test system: EKVX NSCLC
OVCAR-5 ovarian = test system: OVCAR-5 ovarian
TK-10 renal = test system: TK-10 renal
A498 renal = test system: A498 renal
UACC-62 melanoma = test system: UACC-62 melanoma
K-562 leukemia = test system: K-562 leukemia
NCI-H226 lung = test system: NCI-H226 lung
786-0 renal = test system: 786-0 renal
OVCAR-8 ovarian = test system: OVCAR-8 ovarian
T-47D breast = test system: T-47D breast
NCI-H460 lung = test system: NCI-H460 lung
HL-60(TB) leukemia = test system: HL-60(TB) leukemia
MOLT-4 leukemia = test system: MOLT-4 leukemia
MCF7 breast = test system: MCF7 breast
CCRF-CEM leukemia = test system: CCRF-CEM leukemia
SNB-75 CNS = test system: SNB-75 CNS
COLO 205 colon = test system: COLO 205 colon
SF-539 CNS = test system: SF-539 CNS
SK-OV-3 ovarian = test system: SK-OV-3 ovarian

## Cc1cc(OCC(=O)O)c(Cl)cc1Cl
OVCAR-3 ovarian
  TGI: > 100 µM
HOP-92 NSCLC
  TGI: > 100 µM
U251 CNS
  TGI: > 100 µM
SF-295 CNS
  TGI: > 100 µM
SF-268 CNS
  TGI: > 100 µM
A549 NSCLC
  TGI: > 100 µM
ACHN renal
  TGI: > 100 µM
HS 578T breast
  TGI: > 100 µM
DU-145 prostate
  TGI: > 100 µM
HT29 colon
  TGI: > 100 µM
NCI-H522 lung
  TGI: > 100 µM
HCT-116 colon
  TGI: > 100 µM
HCT-15 colon
  TGI: > 100 µM
HCC-2998 colon
  TGI: > 100 µM
M14 melanoma
  TGI: > 100 µM
IGROV1 ovarian
  TGI: > 100 µM
UO-31 renal
  TGI: > 100 µM
RXF 393 renal
  TGI: > 100 µM
UACC-257 melanoma
  TGI: > 100 µM
SK-MEL-28 melanoma
  TGI: > 100 µM
MDA-MB-231 breast
  TGI: > 100 µM
NCI/ADR-RES ovarian
  TGI: > 100 µM
SW-620 colon
  TGI: > 100 µM
CAKI-1 renal
  TGI: > 100 µM
SR leukemia
  TGI: > 100 µM
BT-549 breast
  TGI: > 100 µM
MDA-MB-435
  TGI: > 100 µM
PC-3 prostate
  TGI: > 100 µM
LOX IMVI melanoma
  TGI: > 100 µM
MALME-3M melanoma
  TGI: > 100 µM
SK-MEL-2 melanoma
  TGI: > 100 µM
SN12C renal
  TGI: > 100 µM
KM12 colon
  TGI: > 100 µM
HOP-62 NSCLC
  TGI: > 100 µM
SNB-19 CNS
  TGI: > 100 µM
SK-MEL-5 melanoma
  TGI: > 100 µM
OVCAR-4 ovarian
  TGI: > 100 µM
MDA-N
  TGI: > 100 µM
NCI-H23 lung
  TGI: > 100 µM
RPMI-8226 leukemia
  TGI: > 100 µM
EKVX NSCLC
  TGI: > 100 µM
OVCAR-5 ovarian
  TGI: > 100 µM
TK-10 renal
  TGI: > 100 µM
A498 renal
  TGI: > 100 µM
UACC-62 melanoma
  TGI: > 100 µM
K-562 leukemia
  TGI: > 100 µM
NCI-H226 lung
  TGI: > 100 µM
786-0 renal
  TGI: > 100 µM
OVCAR-8 ovarian
  TGI: > 100 µM
T-47D breast
  TGI: > 100 µM
NCI-H460 lung
  TGI: > 100 µM
HL-60(TB) leukemia
  TGI: > 100 µM
MOLT-4 leukemia
  TGI: > 100 µM

## CC(C)C(=O)OCN(C)c1nc(N(C)COC(=O)C(C)C)nc(N(C)COC(=O)C(C)C)n1
OVCAR-3 ovarian
  TGI: > 100 µM
SF-295 CNS
  TGI: 93.2 µM
MCF7 breast
  TGI: > 100 µM
CCRF-CEM leukemia
  TGI: 70.5 µM
SNB-75 CNS
  TGI: 61.9 µM
A549 NSCLC
  TGI: > 100 µM
ACHN renal
  TGI: 99.6 µM
HS 578T breast
  TGI: 49.1 µM
DU-145 prostate
  TGI: > 100 µM
HT29 colon
  TGI: 66.3 µM
NCI-H522 lung
  TGI: 36 µM
HCT-116 colon
  TGI: > 100 µM
HCT-15 colon
  TGI: 51 µM
M14 melanoma
  TGI: 33 µM
UO-31 renal
  TGI: 52.5 µM
UACC-257 melanoma
  TGI: 38.2 µM
SK-MEL-28 melanoma
  TGI: 44.5 µM
COLO 205 colon
  TGI: 51.3 µM
MDA-MB-231 breast
  TGI: 57.7 µM
NCI/ADR-RES ovarian
  TGI: > 100 µM
SW-620 colon
  TGI: 89.6 µM
CAKI-1 renal
  TGI: > 100 µM
SR leukemia
  TGI: 50.5 µM
SF-539 CNS
  TGI: 53.9 µM
BT-549 breast
  TGI: 46.2 µM
MDA-MB-435
  TGI: 32.2 µM
PC-3 prostate
  TGI: > 100 µM
LOX IMVI melanoma
  TGI: 39.1 µM
SK-MEL-2 melanoma
  TGI: 49.8 µM
SN12C renal
  TGI: > 100 µM
KM12 colon
  TGI: 43.9 µM
HOP-62 NSCLC
  TGI: > 100 µM
SNB-19 CNS
  TGI: > 100 µM
SK-MEL-5 melanoma
  TGI: 28.4 µM
OVCAR-4 ovarian
  TGI: 58.3 µM
MDA-N
  TGI: 46.2 µM
NCI-H23 lung
  TGI: 41.2 µM
RPMI-8226 leukemia
  TGI: > 100 µM
EKVX NSCLC
  TGI: > 100 µM
OVCAR-5 ovarian
  TGI: 95.3 µM
TK-10 renal
  TGI: > 100 µM
A498 renal
  TGI: > 100 µM
K-562 leukemia
  TGI: > 100 µM
NCI-H226 lung
  TGI: > 100 µM
786-0 renal
  TGI: 65.2 µM
OVCAR-8 ovarian
  TGI: 45.5 µM
T-47D breast
  TGI: > 100 µM
NCI-H460 lung
  TGI: 54.2 µM
HL-60(TB) leukemia
  TGI: 48.9 µM
MOLT-4 leukemia
  TGI: 58.1 µM

## CCOC(=O)O/C(=C\c1ccc(OC)cc1)c1c(OC(=O)OCC)n(C(=O)OCC)c2ccccc12
OVCAR-3 ovarian
  TGI: > 100 µM
SK-OV-3 ovarian
  TGI: 99.7 µM
U251 CNS
  TGI: > 100 µM
SF-295 CNS
  TGI: > 100 µM
MCF7 breast
  TGI: > 100 µM
CCRF-CEM leukemia
  TGI: > 100 µM
SNB-75 CNS
  TGI: > 100 µM
SF-268 CNS
  TGI: > 100 µM
A549 NSCLC
  TGI: > 100 µM
ACHN renal
  TGI: > 100 µM
HS 578T breast
  TGI: > 100 µM
DU-145 prostate
  TGI: > 100 µM
HT29 colon
  TGI: > 100 µM
HCT-116 colon
  TGI: > 100 µM
HCT-15 colon
  TGI: > 100 µM
M14 melanoma
  TGI: > 100 µM
IGROV1 ovarian
  TGI: > 100 µM
UO-31 renal
  TGI: > 100 µM
RXF 393 renal
  TGI: 67.9 µM
UACC-257 melanoma
  TGI: > 100 µM
SK-MEL-28 melanoma
  TGI: > 100 µM
COLO 205 colon
  TGI: > 100 µM
MDA-MB-231 breast
  TGI: 77.6 µM
NCI/ADR-RES ovarian
  TGI: > 100 µM
SW-620 colon
  TGI: > 100 µM
CAKI-1 renal
  TGI: > 100 µM
SR leukemia
  TGI: > 100 µM
SF-539 CNS
  TGI: > 100 µM
BT-549 breast
  TGI: > 100 µM
MDA-MB-435
  TGI: > 100 µM
PC-3 prostate
  TGI: > 100 µM
LOX IMVI melanoma
  TGI: > 100 µM
MALME-3M melanoma
  TGI: > 100 µM
SK-MEL-2 melanoma
  TGI: > 100 µM
SN12C renal
  TGI: > 100 µM
KM12 colon
  TGI: > 100 µM
HOP-62 NSCLC
  TGI: > 100 µM
SK-MEL-5 melanoma
  TGI: > 100 µM
OVCAR-4 ovarian
  TGI: > 100 µM
MDA-N
  TGI: > 100 µM
NCI-H23 lung
  TGI: > 100 µM
EKVX NSCLC
  TGI: > 100 µM
OVCAR-5 ovarian
  TGI: > 100 µM
TK-10 renal
  TGI: 93.7 µM
A498 renal
  TGI: 27.3 µM
UACC-62 melanoma
  TGI: > 100 µM
K-562 leukemia
  TGI: > 100 µM
NCI-H226 lung
  TGI: > 100 µM
786-0 renal
  TGI: > 100 µM
OVCAR-8 ovarian
  TGI: > 100 µM
T-47D breast
  TGI: > 100 µM
NCI-H460 lung
  TGI: 30.3 µM
HL-60(TB) leukemia
  TGI: > 100 µM

From PubChem BioAssay (NCI)
